Results taken from patent US20250326741A1, “GLUCOSE-DEPENDENT INSULINOTROPIC POLYPEPTIDE RECEPTOR ANTAGONISTS AND USES THEREOF” (Pfizer Inc., priority 2024, published 2025).

Molecular target: T1, human Glucose-dependent Insulinotropic Polypeptide Receptor (hGIPR) (Homo sapiens, UniProt P48546)
T1 sequence (P48546 22-466): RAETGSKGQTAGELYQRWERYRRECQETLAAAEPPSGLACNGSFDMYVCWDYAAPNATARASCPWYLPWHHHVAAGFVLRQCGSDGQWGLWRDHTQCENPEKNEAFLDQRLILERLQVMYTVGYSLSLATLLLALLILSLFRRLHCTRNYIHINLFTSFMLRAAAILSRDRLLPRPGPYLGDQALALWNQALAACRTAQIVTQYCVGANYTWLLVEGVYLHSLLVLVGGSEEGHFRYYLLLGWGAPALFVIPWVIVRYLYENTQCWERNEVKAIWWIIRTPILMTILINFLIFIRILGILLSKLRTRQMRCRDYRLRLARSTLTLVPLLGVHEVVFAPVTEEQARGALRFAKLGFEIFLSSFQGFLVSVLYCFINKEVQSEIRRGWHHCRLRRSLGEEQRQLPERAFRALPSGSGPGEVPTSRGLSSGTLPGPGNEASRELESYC
Experiment: Functional in vitro GIPR antagonist potency assay (intracellular cAMP, HTRF, hGIP stimulation at EC80)
Type: cell-based
Conditions: not given
Protocol: Example AA. Functional In Vitro GIPR Antagonist Potency Assay
The functional in vitro antagonist potency for test compounds was determined by monitoring intracellular cyclic adenosine monophosphate (cAMP) levels in Chinese hamster ovary (CHO)—K1 cells stably expressing the human Glucose-dependent Insulinotropic Polypeptide Receptor (hGIPR). Following agonist activation, hGIPR associates with the G-protein complex causing the Gas subunit to exchange bound guanosine diphosphate (GDP) for guanosine triphosphate (GTP), followed by dissociation of the Gas-GTP complex. The activated Gas subunit can couple to downstream effectors to regulate the levels of second messengers or cAMP within the cell. Thereby, determination of intracellular cAMP levels allows for pharmacological characterization. Intracellular cAMP levels are quantitated using a homogenous assay utilizing the Homogeneous Time Resolved Fluorescence (HTRF) technology from Perkin Elmer. The method is a competitive immunoassay between native cAMP produced by the cells and cAMP labelled with the acceptor dye, d2. The two entities compete for binding to a monoclonal anti-cAMP antibody labeled with cryptate. The specific signal is inversely proportional to the concentration of cAMP in the cells.
Test compounds were solubilized to a concentration of 30 mM in 100% dimethyl sulfoxide (DMSO). An 11-point dilution series using 1 in 3.162-fold serial dilutions was created in 100% DMSO with a top concentration of 8 mM. The serially diluted compound was spotted with an Echo Acoustic liquid handler (Beckman Coulter) into a 384-well assay plate (Corning, Cat No. 3824) at 50 nL/well with duplicate points at each concentration, at a 200× final assay concentration (FAC). The final compound concentration range in the assay was 40 μM to […], with a final DMSO concentration of 0.5%.
Frozen assay-ready vials (at 1×10^7 cells/vial) of CHO-K1 cells stably expressing the Gs-coupled human GIPR receptor (Eurofins, DiscoverX, Cat No. 95-0146C2) were thawed, counted, and resuspended in assay buffer consisting of Hank's Balanced Salt Solution (HBSS, Lonza Cat No. 10-527) containing 20 mM (4-(2-hydroxyethyl)-1-piperazineethanesulfonic acid (HEPES, Lonza, Cat No. 17-737E), 0.1% bovine serum albumin (BSA, Sigma, Cat No. A7979), and 200 μM 3-isobutyl-1-methylxanthine (IBMX, Sigma, Cat No. 15879) at a density of 4×10^5 cells/mL. Cells were added to assay plate (5 μL/well of 4×10^5 cells/mL stock for 2,000 cells/well final) containing 50 nL of 200×FAC test compound, and incubated at 37° C. (95% O2: 5% CO2) for 2 hours, with micro-clime lids (Labcyte, Cat No. LLS-0310). Following the 2-hour cell and compound incubation, a stimulation mix comprised of hGIPR agonist human glucose-dependent insulinotropic polypeptide (hGIP, full length, Sigma Cat No. G2269) in assay buffer/0.1% DMSO was added to the assay plate (5 μL/well) at an estimated EC80 FAC (based on previous hGIP agonist curves) and incubated for another 30 minutes with micro-clime lids at 37° C. (95% O2: 5% CO2), after which intracellular cAMP levels were quantified as per Perkin Elmer's protocol (5 μL of d2 and then 5 μL cryptate, incubated for 1 hour at room temperature). Emission spectra of samples were measured on a Pherastar plate reader (BMG Labtech Inc) using a HTRF protocol (excitation, 320 nm; emission, 665 nm/620 nm).
(95% O2: 5% CO2), with a micro-clime lid. Following the 2-hour cell and DMSO incubation, a hGIP concentration response curve at 2×FAC (12-point curve using 1 in 3 serial dilutions, with triplicate points at each concentration, 100 nM final top concentration) in assay buffer/1% DMSO was added (5 μL/well) and incubated for a further 30 minutes with a micro-clime lid at 37° C. (95% O2: 5% CO2), after which intracellular cAMP levels were quantified and samples measured as described previously. Experiments passed quality control if the agonist concentration used for stimulation fell between the on-the-day EC50-EC90. […]

Row | Structure (SMILES) | IC50 [nM]
1 | CC(C)c1ccc(NC(=O)N2CCC[C@@H]2C(=O)Nc2ccn(-c3ccc(C(=O)O)cn3)n2)cc1F [Example 3, 6-{3-[(1-{[3-Fluoro-4-(propan-2-yl)phenyl]carbamoyl}-D-prolyl)amino]-1H-pyrazol-1-yl}pyridine-3-carboxylic Acid] | 20

Same assay, conditions: geometric mean; CHO-K1 cells stably expressing human GIPR, cAMP after hGIP stimulation at EC80

Row | Structure (SMILES) | IC50 [nM]
2 | Cc1cc(-n2ccc(NC(=O)[C@H]3CCCN3C(=O)Nc3ccc(C4CCC4)cc3)n2)ccc1C(=O)O [Example 42, 4-[3-({1-[(4-cyclobutylphenyl)carbamoyl]-D-prolyl}amino)-1H-pyrazol-1-yl]-2-methylbenzoic acid] | 12
3 | Cc1cc(-n2ccc(NC(=O)[C@H]3CCCN3C(=O)COc3ccc(C(F)(F)F)cc3)n2)ccc1C(=O)O [Example 17, 2-Methyl-4-{3-[(1-{[4-(trifluoromethyl)phenoxy]acetyl}-D-prolyl)amino]-1H-pyrazol-1-yl}benzoic Acid] | 36
4 | O=C(O)c1ccc(-n2ccc(NC(=O)[C@H]3CCCN3C(=O)NCc3ccc(OC(F)(F)F)cc3)n2)cc1 [Example 33, 4-(3-{[1-{{[4-(trifluoromethoxy)phenyl]methyl}carbamoyl)-D-prolyl]amino}-1H-pyrazol-1-yl)benzoic acid] | 90
5 | C=C(C)c1ccc(NC(=O)N2CCC[C@@H]2C(=O)Nc2ccn(-c3ccc(C(=O)O)c(C)c3)n2)cc1C [Example 58, 2-methyl-4-{3-[(1-{[3-methyl-4-(prop-1-en-2-yl)phenyl]carbamoyl}-D-prolyl)amino]-1H-pyrazol-1-yl}benzoic acid] | 8.8
6 | Cc1cc(-n2ccc(NC(=O)[C@H]3CCCN3C(=O)NCc3ccc(C(F)(F)F)cc3)n2)ccc1C(=O)O [Example 40, 2-methyl-4-(3-{[1-{{[4-(trifluoromethyl)phenyl]methyl}carbamoyl)-D-prolyl]amino}-1H-pyrazol-1-yl)benzoic acid] | 150
7 | Cc1cc(-n2ccc(NC(=O)[C@H]3CCCN3C(=O)COc3ccc(C(F)(F)F)c(F)c3)n2)ccc1C(=O)O [Example 67, 4-{3-[(1-{[3-fluoro-4-(trifluoromethyl)phenoxy]acetyl}-D-prolyl)amino]-1H-pyrazol-1-yl}-2-methylbenzoic acid] | 61
8 | Cc1cc(-n2ccc(NC(=O)[C@H]3CCCN3C(=O)Nc3ccc(OC(F)(F)F)cc3)n2)c(F)cc1C(=O)O [Example 59, 5-Fluoro-2-methyl-4-{3-[(1-{[4-(trifluoromethoxy)phenyl]carbamoyl}-D-prolyl)amino]-1H-pyrazol-1-yl}benzoic Acid] | 11
9 | O=C(O)c1ccc(-n2ccc(NC(=O)[C@H]3CCCN3C(=O)Nc3ccc(C(F)(F)F)cc3)n2)nc1 [Example 27, 6-{3-[(1-{[4-(trifluoromethyl)phenyl]carbamoyl}-D-prolyl)amino]-1H-pyrazol-1-yl}pyridine-3-carboxylic acid] | 74
10 | Cc1cc(-n2ccc(NC(=O)[C@H]3CCCN3C(=O)Nc3ccc(C4CC4)c(C(F)(F)F)c3)n2)ccc1C(=O)O [Example 53, 4-{3-[(1-{[4-cyclopropyl-3-(trifluoromethyl)phenyl]carbamoyl}-D-prolyl)amino]-1H-pyrazol-1-yl}-2-methylbenzoic acid] | 13
11 | Cc1cc(NC(=O)N2CCC[C@@H]2C(=O)Nc2ccn(-c3ccc(C(=O)O)cn3)n2)ccc1C(C)C [Example 28, 6-{3-[(1-{[3-methyl-4-(propan-2-yl)phenyl]carbamoyl}-D-prolyl)amino]-1H-pyrazol-1-yl}pyridine-3-carboxylic acid] | 29
12 | Cc1cc(-n2ccc(NC(=O)[C@H]3CCCN3C(=O)CNc3ccc(C(F)(F)F)cc3)n2)ccc1C(=O)O [Example 19, N-[4-(Trifluoromethyl)phenyl]glycyl-N-[1-(4-carboxy-3-methylphenyl)-1H-pyrazol-3-yl]-D-prolinamide] | 78
13 | Cc1cc(-n2ccc(NC(=O)[C@H]3CCCN3C(=O)NCc3ccc(C(F)(F)F)c(F)c3)n2)ccc1C(=O)O [Example 48, 4-(3-{[1-{{[3-fluoro-4-(trifluoromethyl)phenyl]methyl}carbamoyl)-D-prolyl]amino}-1H-pyrazol-1-yl)-2-methylbenzoic acid] | 150
14 | Cc1cc(-n2ccc(NC(=O)[C@H]3CCCN3C(=O)COc3ccc(OC(F)(F)F)cc3)n2)ccc1C(=O)O [Example 63, 2-methyl-4-{3-[(1-{[4-(trifluoromethoxy)phenoxy]acetyl}-D-prolyl)amino]-1H-pyrazol-1-yl}benzoic acid] | 46

Continued, values first:

Row | IC50 [nM] | Structure (SMILES)
15 | 110 | Cc1cc(-n2ccc(NC(=O)[C@H]3CCCN3C(=O)Nc3ccc(C(C)C)c(F)c3)n2)ccc1C(N)=O [Example 16, (2R)—N^2-[1-(4-Carbamoyl-3-methylphenyl)-1H-pyrazol-3-yl]-N^1-[3-fluoro-4-(propan-2-yl)phenyl]pyrrolidine-1,2-dicarboxamide]
16 | 120 | CC(C)c1ccc(NC(=O)N2CCC[C@@H]2C(=O)Nc2ccn(-c3ccc(C(N)=O)cc3)n2)cc1 [Example 35]
17 | 310 | Cc1cc(-n2ccc(NC(=O)[C@H]3CCCN3C(=O)Nc3ccc(OC(F)F)cc3)n2)ccc1C(=O)O [Example 56, 4-{3-[(1-{[4-(difluoromethoxy)phenyl]carbamoyl}-D-prolyl)amino]-1H-pyrazol-1-yl}-2-methylbenzoic acid]
18 | 5.3 | CC(C)c1ccc(NC(=O)N2CCC[C@@H]2C(=O)Nc2ccn(-c3cc(F)c(O)c(F)c3)n2)cc1 [Example 43]
19 | 21 | Cc1cc(-n2ccc(NC(=O)[C@H]3CCCN3C(=O)Nc3ccc(C(C)C)cc3)n2)c(F)cc1C(=O)O [Example 50, 5-fluoro-2-methyl-4-{3-[(1-{[4-(propan-2-yl)phenyl]carbamoyl}-D-prolyl)amino]-1H-pyrazol-1-yl}benzoic acid]
20 | 12 | O=C(Nc1ccn(-c2cc(F)c(O)c(F)c2)n1)[C@H]1CCCN1C(=O)Nc1ccc(C(F)(F)F)cc1 [Example 54]
21 | 7.2 | CC(C)c1ccc(NC(=O)N2CCC[C@@H]2C(=O)Nc2ccn(-c3cc(F)c(O)c(F)c3)n2)cc1F [Example 14, (2R)—N^2-[1-(3,5-Difluoro-4-hydroxyphenyl)-1H-pyrazol-3-yl]-N^1-[3-fluoro-4-(propan-2-yl)phenyl]pyrrolidine-1,2-dicarboxamide]
22 | 3.8 | Cc1cc(NC(=O)N2CCC[C@@H]2C(=O)Nc2ccn(-c3cc(F)c(O)c(F)c3)n2)ccc1C(C)C [Example 55]
23 | 13 | Cc1cc(-n2ccc(NC(=O)[C@H]3CCCN3C(=O)Nc3ccc(C(F)(F)F)c(Cl)c3)n2)ccc1C(=O)O [Example 52, 4-{3-[(1-{[3-chloro-4-(trifluoromethyl)phenyl]carbamoyl}-D-prolyl)amino]-1H-pyrazol-1-yl}-2-methylbenzoic acid]
